Assays:
Carboplatin = compound: C1CC(C1)(C(=O)[O-])C(=O)[O-].N.N.[Pt+2] [Carboplatin]; details: max 10 µM
Method in brief: (§1)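 Plates with 1536 wells received cancer cell lines in 7.5 μl of DMEM/F12 or RPMI containing 10% FBS. After 24 hours at 37°C and 5% CO2, cells were dosed for 72 hours with final DMSO typically 0.2%, and viability was read by CellTiter-Glo 2.0 luminescence scaled between blank-well and DMSO-well means. The single-agent IC50 was taken from a logistic fit of the dose responses made with a non-linear mixed effects model, that logistic curve having two parameters.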

AZD5363 = compound: C1CN(CCC1(C(=O)N[C@@H](CCO)C2=CC=C(C=C2)Cl)N)C3=NC=NC4=C3C=CN4 [AZD5363]; details: max 10 µM
Method in brief: as §1

AZD1775 = compound: C=CCn1c(=O)c2cnc(Nc3ccc(N4CCN(C)CC4)cc3)nc2n1-c1cccc(C(C)(C)O)n1 [AZD1775]; details: max 3 µM
Method in brief: as §1

Trametinib = compound: CC(=O)Nc1cccc(-n2c(=O)n(C3CC3)c(=O)c3c(Nc4ccc(I)cc4F)n(C)c(=O)c(C)c32)c1 [Trametinib]; details: max 1 µM
Method in brief: as §1

Paclitaxel = compound: CC(=O)O[C@H]1C(=O)[C@@]2(C)[C@H]([C@H](OC(=O)c3ccccc3)[C@]3(O)C[C@H](OC(=O)[C@H](O)[C@@H](NC(=O)c4ccccc4)c4ccccc4)C(C)=C1C3(C)C)[C@]1(OC(C)=O)CO[C@@H]1C[C@@H]2O [Paclitaxel]; details: max 3 µM
Method in brief: as §1

Palbociclib = compound: CC(=O)c1c(C)c2cnc(Nc3ccc(N4CCNCC4)cn3)nc2n(C2CCCC2)c1=O [Palbociclib]; details: max 10 µM
Method in brief: as §1

AZD1390 = compound: CC(C)n1c(=O)n(C)c2cnc3cc(F)c(-c4ccc(OCCCN5CCCCC5)nc4)cc3c21 [AZD1390]; details: max 0.3 µM
Method in brief: as §1

Venetoclax = compound: CC1(C)CCC(CN2CCN(c3ccc(C(=O)NS(=O)(=O)c4ccc(NCC5CCOCC5)c([N+](=O)[O-])c4)c(Oc4cnc5[nH]ccc5c4)c3)CC2)=C(c2ccc(Cl)cc2)C1 [Venetoclax]; details: max 1 µM
Method in brief: as §1

Dasatinib = compound: CC1=C(C(=CC=C1)Cl)NC(=O)C2=CN=C(S2)NC3=CC(=NC(=N3)C)N4CCN(CC4)CCO [Dasatinib]; details: max 2 µM
Method in brief: as §1

SG3199 = compound: CC1=CN2[C@@H](C1)C=NC3=CC(=C(C=C3C2=O)OC)OCCCCCOC4=C(C=C5C(=C4)N=C[C@@H]6CC(=CN6C5=O)C)OC [SG3199]; details: max 0.001 µM
Method in brief: as §1

AZD2811 = compound: CCN(CCO)CCCOc1ccc2c(Nc3cc(CC(=O)Nc4cccc(F)c4)[nH]n3)ncnc2c1 [AZD2811]; details: max 1 µM
Method in brief: as §1

SN-38 = compound: CCc1c2c(nc3ccc(O)cc13)-c1cc3c(c(=O)n1C2)COC(=O)[C@]3(O)CC [SN-38]; details: max 0.3 µM
Method in brief: as §1

AZD0156 = compound: CN(C)CCCOc1ccc(-c2ccc3ncc4c(c3c2)n(C2CCOCC2)c(=O)n4C)cn1 [AZD0156]; details: max 3 µM
Method in brief: as §1

AZD4320 = compound: CN(CC[C@H](CSC1=CC=CC=C1)NC2=C(C=C(C=C2)S(=O)(=O)NC(=O)C3=CC=C(C=C3)N4CCC(CC4)[C@H](C5=CC=CC=C5C6=CC=C(C=C6)Cl)O)S(=O)(=O)C(F)(F)F)CCO [AZD4320]; details: max 1 µM
Method in brief: as §1

Alisertib = compound: COc1cc(Nc2ncc3c(n2)-c2ccc(Cl)cc2C(c2c(F)cccc2OC)=NC3)ccc1C(=O)O [Alisertib]; details: max 10 µM
Method in brief: as §1

Etoposide = compound: COc1cc([C@@H]2c3cc4c(cc3[C@@H](O[C@@H]3O[C@@H]5CO[C@@H](C)O[C@H]5[C@H](O)[C@H]3O)[C@H]3COC(=O)[C@H]23)OCO4)cc(OC)c1O [Etoposide]; details: max 10 µM
Method in brief: as §1

Gefitinib = compound: COc1cc2ncnc(Nc3ccc(F)c(Cl)c3)c2cc1OCCCN1CCOCC1 [Gefitinib]; details: max 10 µM
Method in brief: as §1

Prexasertib = compound: COc1cccc(OCCCN)c1-c1cc(Nc2cnc(C#N)cn2)n[nH]1 [Prexasertib]; details: max 1 µM
Method in brief: as §1

Doxorubicin = compound: COc1cccc2c1C(=O)c1c(O)c3c(c(O)c1C2=O)C[C@@](O)(C(=O)CO)C[C@@H]3O[C@H]1C[C@H](N)[C@H](O)[C@H](C)O1 [Doxorubicin]; details: max 1 µM
Method in brief: as §1

AZD5153 = compound: COc1nnc2ccc(N3CCC(c4ccc(OCCN5CCN(C)C(=O)[C@H]5C)cc4)CC3)nn12 [AZD5153]; details: max 1 µM
Method in brief: as §1

Lapatinib = compound: CS(=O)(=O)CCNCc1ccc(-c2ccc3ncnc(Nc4ccc(OCc5cccc(F)c5)c(Cl)c4)c3c2)o1 [Lapatinib]; details: max 10 µM
Method in brief: as §1

AZD8186 = compound: C[C@@H](Nc1cc(F)cc(F)c1)c1cc(C(=O)N(C)C)cc2c(=O)cc(N3CCOCC3)oc12 [AZD8186]; details: max 10 µM
Method in brief: as §1

Crizotinib = compound: C[C@@H](Oc1cc(-c2cnn(C3CCNCC3)c2)cnc1N)c1c(Cl)ccc(F)c1Cl [Crizotinib]; details: max 10 µM
Method in brief: as §1

Savolitinib = compound: C[C@@H](c1ccc2nccn2c1)n1nnc2ncc(-c3cnn(C)c3)nc21 [Savolitinib]; details: max 1 µM
Method in brief: as §1

AZD6738 = compound: C[C@@H]1COCCN1C2=NC(=NC(=C2)C3(CC3)[S@](=N)(=O)C)C4=C5C=CNC5=NC=C4 [AZD6738]; details: max 10 µM
Method in brief: as §1

AZD5991 = compound: Cc1c2c(nn1C)CSCc1cc(n(C)n1)CSc1cc(c3ccccc3c1)OCCCc1c(C(=O)O)n(C)c3c-2c(Cl)ccc13 [AZD5991]; details: max 1 µM
Method in brief: as §1

AZD7648 = compound: Cc1cc2ncnn2cc1Nc1ncc2c(n1)n(C1CCOCC1)c(=O)n2C [AZD7648]; details: max 10 µM
Method in brief: as §1

Taselisib = compound: Cc1nc(-c2cn3c(n2)-c2ccc(-c4cnn(C(C)(C)C(N)=O)c4)cc2OCC3)n(C(C)C)n1 [Taselisib]; details: max 10 µM
Method in brief: as §1

Selumetinib = compound: Cn1cnc2c(F)c(Nc3ccc(Br)cc3Cl)c(C(=O)NOCCO)cc21 [Selumetinib]; details: max 10 µM
Method in brief: as §1

SRA737 = compound: N#Cc1cnc(Nc2cc(NC[C@H]3CNCCO3)c(C(F)(F)F)cn2)cn1 [SRA737]; details: max 10 µM
Method in brief: as §1

MK-2206 = compound: NC1(c2ccc(-c3nc4ccn5c(=O)[nH]nc5c4cc3-c3ccccc3)cc2)CCC1 [MK-2206]; details: max 10 µM
Method in brief: as §1

Gemcitabine = compound: Nc1ccn([C@@H]2O[C@H](CO)[C@@H](O)C2(F)F)c(=O)n1 [Gemcitabine]; details: max 0.3 µM
Method in brief: as §1

[1] = compound: O=C(Nc1ccc2[nH]nc(-c3ccncc3)c2c1)[C@@H]1CCN(CC(=O)N2CCN(c3ccc(-c4ncccn4)cc3)CC2)C1; details: max 5 µM
Method in brief: as §1

Olaparib = compound: O=C(c1cc(Cc2n[nH]c(=O)c3ccccc23)ccc1F)N1CCN(C(=O)C2CC2)CC1 [Olaparib]; details: max 10 µM
Method in brief: as §1

5-Fluorouracil = compound: O=c1[nH]cc(F)c(=O)[nH]1 [5-Fluorouracil]; details: max 20 µM
Method in brief: as §1

Row | Cell Line | IC50, cell viability 72 h (Carboplatin) [µM] | IC50, cell viability 72 h (AZD5363) [µM] | IC50, cell viability 72 h (AZD1775) [nM] | IC50, cell viability 72 h (Trametinib) [nM] | IC50, cell viability 72 h (Paclitaxel) [nM] | IC50, cell viability 72 h (Palbociclib) [µM] | IC50, cell viability 72 h (AZD1390) [nM] | IC50, cell viability 72 h (Venetoclax) [nM] | IC50, cell viability 72 h (Dasatinib) [nM] | IC50, cell viability 72 h (SG3199) [nM] | IC50, cell viability 72 h (AZD2811) [nM] | IC50, cell viability 72 h (SN-38) [nM] | IC50, cell viability 72 h (AZD0156) [nM] | IC50, cell viability 72 h (AZD4320) [nM] | IC50, cell viability 72 h (Alisertib) [µM] | IC50, cell viability 72 h (Etoposide) [µM] | IC50, cell viability 72 h (Gefitinib) [µM] | IC50, cell viability 72 h (Prexasertib) [nM] | IC50, cell viability 72 h (Doxorubicin) [nM] | IC50, cell viability 72 h (AZD5153) [nM] | IC50, cell viability 72 h (Lapatinib) [µM] | IC50, cell viability 72 h (AZD8186) [µM] | IC50, cell viability 72 h (Crizotinib) [µM] | IC50, cell viability 72 h (Savolitinib) [nM] | IC50, cell viability 72 h (AZD6738) [µM] | IC50, cell viability 72 h (AZD5991) [nM] | IC50, cell viability 72 h (AZD7648) [µM] | IC50, cell viability 72 h (Taselisib) [µM] | IC50, cell viability 72 h (Selumetinib) [µM] | IC50, cell viability 72 h (SRA737) [µM] | IC50, cell viability 72 h (MK-2206) [µM] | IC50, cell viability 72 h (Gemcitabine) [nM] | IC50, cell viability 72 h [1] [µM] | IC50, cell viability 72 h (Olaparib) [µM] | IC50, cell viability 72 h (5-Fluorouracil) [µM]
1 | KNS-62 (Squamous Cell Lung Carcinoma) | > 10 | 6.59 | > 3000 | 276 | 273 | > 10 | > 300 | > 1000 | > 2000 | > 1 | > 1000 | 53.3 | > 3000 | > 1000 | > 10 | > 10 | > 10 | 342 | > 1000 | 632 | > 10 | > 10 | > 10 | > 1000 | > 10 | > 1000 | > 10 | > 10 | > 10 | > 10 | > 10 | > 300 | 4.14 | > 10 | > 20
2 | L-363 (Plasma Cell Myeloma) | > 10 | > 10 | 231 | > 1000 | 5.31 | > 10 | > 300 | 694 | > 2000 | > 1 | > 1000 | > 300 | > 3000 | > 1000 | > 10 | > 10 | > 10 | 5.32 | > 1000 | 381 | > 10 | > 10 | > 10 | > 1000 | 2.77 | 134 | > 10 | 9.12 | > 10 | 1.22 | 8.5 | 258 | > 5 | > 10 | > 20
3 | MDA-MB-175-VII (Breast Carcinoma) | > 10 | 4.36 | > 3000 | 463 | > 3000 | > 10 | > 300 | > 1000 | > 2000 | > 1 | > 1000 | 110 | > 3000 | > 1000 | > 10 | > 10 | 1.15 | > 1000 | > 1000 | > 1000 | 0.514 | > 10 | > 10 | > 1000 | > 10 | > 1000 | > 10 | 1.79 | > 10 | > 10 | 3.99 | > 300 | 0.794 | > 10 | > 20
4 | MG-63 (Osteosarcoma) | > 10 | 6.89 | 2810 | > 1000 | 8.23 | > 10 | > 300 | > 1000 | 354 | > 1 | > 1000 | 10.8 | > 3000 | > 1000 | 2.03 | > 10 | > 10 | 72.7 | > 1000 | 256 | > 10 | 6.32 | 7.07 | > 1000 | > 10 | > 1000 | > 10 | 1.77 | > 10 | > 10 | > 10 | 47.3 | 4.71 | > 10 | > 20
5 | MRK-nu-1 (Breast Carcinoma) | > 10 | > 10 | 1660 | > 1000 | 4.68 | > 10 | > 300 | > 1000 | > 2000 | > 1 | 816 | 35.2 | > 3000 | > 1000 | 3.63 | 6.13 | > 10 | 220 | 629 | > 1000 | > 10 | > 10 | > 10 | > 1000 | 9.31 | 46.7 | > 10 | > 10 | > 10 | > 10 | > 10 | 95.7 | > 5 | > 10 | 18.4
